Assay results from publication PMC6364417, “Kinase inhibitor library screening identifies synergistic drug combinations effective in sensitive and resistant melanoma cells” (Journal of Experimental & Clinical Cancer Research : CR, 2019).

Columns and labels:
Experiment in all cases: Kinase inhibitor library screening, PrestoBlue cell viability, 1 or 10 μM, 72 h
[1] = system: 501Mel-XP cells (Vemurafenib-resistant); conditions: 72 h
IGR37 cells (parental) = system: IGR37 cells (parental)
[2] = system: A375-XP cells (Vemurafenib-resistant)
A375 cells (parental) = system: A375 cells (parental)
[3] = system: IGR37-GP cells (Dabrafenib-resistant)
[4] = system: 501Mel-GP cells (Dabrafenib-resistant); conditions: 72 h
[5] = system: IGR37-XP cells (Vemurafenib-resistant)
[6] = system: A375-GP cells (Dabrafenib-resistant)
501Mel cells (parental) = conditions: 72 h
Outline: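 Kinase inhibitors added at two fixed concentrations; 72 h exposure; PrestoBlue readout; % viability vs untreated; n ≥ 2 per line.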

| Compound | cell viability (kinase inhibitor library screening) ([1]; 501Mel XP, 1μΜ) [%] | cell viability (kinase inhibitor library screening) ([1]; 501Mel XP, 10μΜ) [%] | cell viability (kinase inhibitor library screening) (IGR37 cells (parental); IGR37 Parental, 1μΜ, 72 h) [%] | cell viability (kinase inhibitor library screening) (IGR37 cells (parental); IGR37 Parental, 10μΜ, 72 h) [%] | cell viability (kinase inhibitor library screening) ([2]; A375 XP, 1μΜ, 72 h) [%] | cell viability (kinase inhibitor library screening) ([2]; A375 XP, 10μΜ, 72 h) [%] | cell viability (kinase inhibitor library screening) (A375 cells (parental); A375 Parental, 10μΜ, 72 h) [%] | cell viability (kinase inhibitor library screening) ([3]; IGR37 GP, 1μΜ, 72 h) [%] | cell viability (kinase inhibitor library screening) ([3]; IGR37 GP, 10μΜ, 72 h) [%] | cell viability (kinase inhibitor library screening) ([4]; 501Mel GP, 1μΜ) [%] | cell viability (kinase inhibitor library screening) ([4]; 501Mel GP, 10μΜ) [%] | cell viability (kinase inhibitor library screening) ([5]; IGR37 XP, 1μΜ, 72 h) [%] | cell viability (kinase inhibitor library screening) ([5]; IGR37 XP, 10μΜ, 72 h) [%] | cell viability (kinase inhibitor library screening) ([6]; A375 GP, 1μΜ, 72 h) [%] | cell viability (kinase inhibitor library screening) ([6]; A375 GP, 10μΜ, 72 h) [%] | cell viability (kinase inhibitor library screening) (501Mel cells (parental); 501Mel Parental, 1μΜ) [%] | cell viability (kinase inhibitor library screening) (501Mel cells (parental); 501Mel Parental, 10μΜ) [%] | cell viability (kinase inhibitor library screening) (A375 cells (parental); A375 Parental, 1μΜ, 72 h) [%] | other results |
| --- | --- | --- | --- | --- | --- | --- | --- | --- | --- | --- | --- | --- | --- | --- | --- | --- | --- | --- | --- |
| Cc1ccc(F)c(NC(=O)Nc2ccc(-c3cccc4[nH]nc(N)c34)cc2)c1 [Linifanib (ABT-869)] |  |  |  |  |  |  |  |  |  |  |  |  |  |  |  |  |  |  | Cell viability in kinase inhibitor library screening, 501Mel XP, 10μΜ ([1]; 501Mel XP, 10μΜ, in %): 3.8; Cell viability in kinase inhibitor library screening, IGR37 Parental, 1μΜ (IGR37 cells (parental); IGR37 Parental, 1μΜ, 72 h, in %): 99.9; Cell viability in kinase inhibitor library screening, IGR37 Parental, 10μΜ (IGR37 cells (parental); IGR37 Parental, 10μΜ, 72 h, in %): 60.3; Cell viability in kinase inhibitor library screening, A375 XP, 1μΜ ([2]; A375 XP, 1μΜ, 72 h): 110.5; Cell viability in kinase inhibitor library screening, A375 XP, 10μΜ ([2]; A375 XP, 10μΜ, 72 h): 59.8; Cell viability in kinase inhibitor library screening, A375 Parental, 10μΜ (A375 cells (parental); A375 Parental, 10μΜ, 72 h): 46.3; Cell viability in kinase inhibitor library screening, A375 Parental, 1μΜ (A375 cells (parental); A375 Parental, 1μΜ, 72 h): 106.9; Cell viability in kinase inhibitor library screening, IGR37 GP, 10μΜ ([3]; IGR37 GP, 10μΜ, 72 h): 52.4%; Cell viability in kinase inhibitor library screening, 501Mel GP, 1μΜ ([4]; 501Mel GP, 1μΜ, in %): 106.7; Cell viability in kinase inhibitor library screening, 501Mel GP, 10μΜ ([4]; 501Mel GP, 10μΜ, in %): 11.3; Cell viability in kinase inhibitor library screening, IGR37 XP, 10μΜ ([5]; IGR37 XP, 10μΜ, 72 h): 30.7%; Cell viability in kinase inhibitor library screening, IGR37 XP, 1μΜ ([5]; IGR37 XP, 1μΜ, 72 h, in %): 102.6; Cell viability in kinase inhibitor library screening, A375 GP, 1μΜ ([6]; A375 GP, 1μΜ, 72 h): 102.6; Cell viability in kinase inhibitor library screening, A375 GP, 10μΜ ([6]; A375 GP, 10μΜ, 72 h): 38.3; Cell viability in kinase inhibitor library screening, 501Mel Parental, 1μΜ (501Mel cells (parental); 501Mel Parental, 1μΜ, in %): 98.1 |
| C[C@]1(O)C[C@@H](c2nc(-c3ccc4ccc(-c5ccccc5)nc4c3)c3c(N)nccn32)C1 [Linsitinib (OSI-906)] |  |  |  |  |  |  |  |  |  |  |  |  |  |  |  |  |  |  | viability at 1 µM ([1]; Homo sapiens, read-out: cell viability, 501Mel XP, 1μΜ): 75.2%; viability at 10 µM ([1]; Homo sapiens, read-out: cell viability, 501Mel XP, 10μΜ): 32.6%; viability at 1 µM (IGR37 cells (parental); Homo sapiens, IGR-37, 72 h, read-out: cell viability, IGR37 Parental, 1μΜ): 107%; viability at 10 µM (IGR37 cells (parental); Homo sapiens, IGR-37, 72 h, read-out: cell viability, IGR37 Parental, 10μΜ): 67.7%; viability at 1 µM ([2]; Homo sapiens, A-375, 72 h, read-out: cell viability, A375 XP, 1μΜ): 77.2%; viability at 10 µM ([2]; Homo sapiens, A-375, 72 h, read-out: cell viability, A375 XP, 10μΜ): 44.6%; viability at 1 µM (A375 cells (parental); Homo sapiens, A-375, 72 h, read-out: cell viability, A375 Parental, 1μΜ): 84.1%; viability at 10 µM (A375 cells (parental); Homo sapiens, A-375, 72 h, read-out: cell viability, A375 Parental, 10μΜ): 42.3%; viability at 1 µM ([3]; Homo sapiens, IGR-37, 72 h, read-out: cell viability, IGR37 GP, 1μΜ): 81.6%; viability at 10 µM ([3]; Homo sapiens, IGR-37, 72 h, read-out: cell viability, IGR37 GP, 10μΜ): 25.5%; viability at 1 µM ([4]; Homo sapiens, read-out: cell viability, 501Mel GP, 1μΜ): 83.6%; viability at 10 µM ([4]; Homo sapiens, read-out: cell viability, 501Mel GP, 10μΜ): 54.2%; viability at 1 µM ([5]; Homo sapiens, IGR-37, 72 h, read-out: cell viability, IGR37 XP, 1μΜ): 66.7%; viability at 10 µM ([5]; Homo sapiens, IGR-37, 72 h, read-out: cell viability, IGR37 XP, 10μΜ): 6.7%; viability at 1 µM ([6]; Homo sapiens, A-375, 72 h, read-out: cell viability, A375 GP, 1μΜ): 67.1%; viability at 10 µM ([6]; Homo sapiens, A-375, 72 h, read-out: cell viability, A375 GP, 10μΜ): 34.4%; viability at 1 µM (501Mel cells (parental); Homo sapiens, read-out: cell viability, 501Mel Parental, 1μΜ): 70.7%; viability at 10 µM (501Mel cells (parental); Homo sapiens, read-out: cell viability, 501Mel Parental, 10μΜ): 45.5% |
| COCCNCc1ccc(-c2cc3nccc(Oc4ccc(NC(=S)NC(=O)Cc5ccc(F)cc5)cc4F)c3s2)nc1 [MGCD-265] | 76.7 | 64.2 | 96.8 | 92.1 | 104.8 | 98.2 | 83.0 | 91.8 | 78.3 | 89.8 | 68.8 | 91.5 | 50.3 | 95.5 | 85.6 | 104.7 | 94.4 |  |  |
| CN(C[C@@H]1COCCO1)S(=O)(=O)Nc1ccc2ccc3ncc(-c4cnn(C)c4)cc3c(=O)c2c1 [MK-2461] | 77.5 | 30.0 | 103.2 | 84.5 | 106.1 | 88.4 | 78.1 |  | 28.3 | 90.6 | 45.5 | 99.3 | 6.5 |  | 78.6 | 102.9 | 83.3 | 106.3 |  |
| O=C(O)[C@]1(Cc2cccc(Nc3nccs3)n2)CC[C@@H](Oc2cccc(Cl)c2F)CC1 [MK-5108 (VX-689)] | 72.1 | 52.0 | 98.6 | 94.9 | 99.5 | 68.2 | 56.1 |  | 93.5 | 83.4 | 63.6 | 100.4 | 80.0 | 92.6 | 63.9 | 94.9 | 74.6 | 91.4 |  |
| O=C(O)c1ccc(Nc2ncc3c(n2)-c2ccc(Cl)cc2C(c2c(F)cccc2F)=NC3)cc1 [MLN8054] | 74.5 | 59.4 | 98.2 | 64.8 | 75.7 | 52.2 | 41.6 | 94.0 | 66.7 | 86.0 | 65.6 | 94.1 | 42.0 | 70.2 | 45.2 | 86.3 | 77.0 | 66.5 |  |
| COc1cc(Nc2ncc3c(n2)-c2ccc(Cl)cc2C(c2c(F)cccc2OC)=NC3)ccc1C(=O)O [MLN8237 (Alisertib)] | 67.2 | 49.0 | 70.3 | 54.5 | 51.0 | 50.5 | 40.1 | 89.7 | 56.0 | 82.8 | 52.7 | 86.2 | 31.0 | 42.7 | 41.7 | 82.2 | 73.9 | 43.3 |  |
| Cc1ccc(NC(=O)c2ccc(CN3CCN(C)CC3)cc2)cc1Nc1nc(-c2cccnc2)cs1 [Masitinib (AB1010)] | 94.5 | 20.4 | 98.6 | 92.0 | 105.3 | 94.5 | 87.9 |  | 77.4 | 103.1 | 85.2 | 103.2 | 49.1 | 98.6 | 85.2 |  | 88.8 |  |  |
